Measured values reported in US7635686B2, “Therapeutically useful triethyleneglycol cholesteryl oligonucleotides” (Bioniche Life Sciences, Inc., priority 2001, dated 2009).
{TEG-Chol} = cholesteryl attached through a triethylene glycol (TEG) linker

Key:
HIG-82 cells = experiment: HIG-82 synovial cell proliferation (MTT reduction); assay type: cell-based, rabbit; details: 53 μM, 48 hours; for Inhibition of HIG-82 cell proliferation, inhibition (%): MTT
Experimental: Adherent HIG-82 cells, a synovial cell line, were incubated at 10×10^5 cells/ml for 48 hours with 53 μM (final concentration) of SEQ ID NO:2, SEQ ID NO:3, SEQ ID NO:4, SEQ ID NO:6, SEQ ID NO:7, or SEQ ID NO:8. Cellular proliferation was measured using dimethylthiazol-diphenyl-tetrazolium (MTT) reduction (Mosman et al., J. Immunol. Methods 65:55, 1983). MTT was measured at a wavelength of 570 nm using a multiple spectrophotometer reader (ELX800, Bio-TEK, Instruments Inc., Winooski, Vt.). The percentage of inhibition, calculated as […]

Hs578T cells [1] = experiment: MATRIGEL outgrowth after 1 hr pre-incubation, Hs578T; assay type: cell-based, human; details: 53 μM pre-incubation 1 hr, 3 days on MATRIGEL, FIG. 1 and FIG. 2
Experimental: (§1) Various in vitro and in vivo assays may be used to evaluate the influence of the extracellular microenvironment on behavior of normal cells and tumor cells. Such assays may employ MATRIGEL® (Becton Dickinson, Franklin Lakes, N.J.), which is a solubilized basement membrane preparation extracted from the Engelbreth-Holm-Swarm murine sarcoma.
(§2) MCF-7, MDA-MB-231 (MDA-231), Hs578T and Mpanc-96 cells were cultured separately in regular culture medium, trypsinized, and counted. 100×10^3 of MDA-231 cells, 100×10^3 of Hs578T cells, 150×10^3 of MCF-7 cells and 150×10^3 of Mpanc-96 cells were separately pre-incubated for 1 hr at 37° C. in a final concentration of 53 μM of SEQ ID NO:1, 53 μM of SEQ ID NO:5 or RCM, and plated on top of MATRIGEL®-coated plates (MATRIGEL® Basement membrane matrix coated cellware 24-well plate,) for 3 days. Plates were fixed with 10% formalin. Digital photographs of the cells in the 24-well plates were taken using a Nikon Coolpix 990 digital camera (Nikon Corporation, Tokyo, Japan) connected to a Nikon inverted microscope model TMS.
(§3) MDA-MB-231 (MDA-231) and Hs578T were cultured in regular culture medium, trypsinized and counted. 100×10^3 of MDA-MB-231 cells or 100×10^3 of Hs578T cells, were separately pre-incubated for 1 hr at 37° C. in a final concentration of 53 μM of SEQ ID NO:4, 53 μM of SEQ ID NO:8 or RCM and plated on MATRIGEL®-coated plates for 3 days. Plates were fixed with 10% formalin. Digital photographs of the cells in the 24-well plates were taken using a Nikon Coolpix 990 digital camera (Nikon Corporation, Tokyo, Japan) connected to a Nikon inverted microscope model TMS.

[2] = system: MDA-MB-231 (MDA-231) cells; experiment: MATRIGEL outgrowth after 1 hr pre-incubation, MDA-231; assay type: cell-based, human; details: MDA-231, 53 μM pre-incubation 1 hr, 3 days on MATRIGEL, FIG. 1 and FIG. 2
Experimental: as §1, §2, §3

MCF-7 cells = experiment: Treatment of pre-formed 3-dimensional MCF-7 structures on MATRIGEL; assay type: cell-based, human; details: MCF-7, 53 μM, repeated every 3-4 days up to 19-20 days, FIG. 3
Experimental: MCF-7 cells were cultured in regular culture medium (RCM), trypsinized and counted. 150×10^3 of MCF-7 cells, in wells of 24-well plates coated with 350 μl of MATRIGEL®. After the formation of 3-dimensional structures during 48 hrs without any treatment, the medium was changed and the structures were exposed to a final concentration of 53 μM of SEQ ID NO:3, 53 μM of SEQ ID NO:7, 53 μM of cholesteryl-TEG phosphoramidite, RCM or their respective control media (RCM with water, RCM with DMSO, or RCM with acetonitrile). The treatments were repeated every 3-4 days until a maximum time in culture of 19-20 days. The experiment was repeated three times. Digital photographs of the cells in the 24-well plates were taken using a Nikon Coolpix 990 digital camera connected to a Nikon inverted microscope model TMS.

[3] = system: MDA-MB-231 (MDA-231) cells; experiment: Treatment of pre-formed 3-dimensional MDA-231 structures on MATRIGEL; assay type: cell-based, human; details: MDA-231, 53 μM, repeated every 3-4 days up to 17-21 days, FIG. 4
Experimental: The MDA-MB-231 (MDA-231) cells were cultured in regular culture medium, trypsinized and counted. 100×10^3 of MDA-231 cells were plated in regular culture medium (RCM), in wells of 24-well plates coated with 350 μl of MATRIGEL®. After the formation of 3-dimensional structures during 48 hrs without any treatment, the medium was changed, and structures were exposed to a final concentration of 53 μM of SEQ ID NO:3, 53 μM of SEQ ID NO:7, 53 μM of cholesteryl-TEG phosphoramidite, RCM, or their respective control media (RCM with water, RCM with DMSO or RCM with acetonitrile). The treatments were repeated every 3-4 days until a maximum time in culture of 17-21 days. The experiment was repeated three times. Digital photographs of the cells in the 24-well plates were taken using a Nikon Coolpix 990 digital camera connected to a Nikon inverted microscope model TMS.

Hs578T cells [4] = experiment: Cell cycle progression in Hs578T multicellular spheroids (PI staining); assay type: cell-based, human; details: 53 μM, 72 hrs, FIG. 5
Experimental: Multicellular spheroids (MS) is an example of a special in vitro assay, in which tumor cells are cultured in a 3-dimensional manner to form a “tumor-like” structure. In this system, there is a reinforcement of cell-cell interactions that mimic microenvironmental conditions of malignant cells in solid tumors in vivo. In this type of assay, no extracellular matrix components are added. Cells cultured in this MS system differ from those in 2-dimensional systems (monolayer culture conditions). Some of these differences are related to structural and functional differentiation of tumor cells, changes in the cell cycle of tumor cells, “multicellular drug resistance”, and changes in the diffusion and penetration of drugs throughout layers of tumor cells (reviewed in Green et al., Anticancer Drug Des. 14:153, 1999).
About 100×10^3 Hs578T cells per spheroid were cultured in presence of 53 μM final concentration of SEQ ID NO:3, SEQ ID NO:7, 53 μM final concentration of cholesteryl-TEG phosphoramidite (cholTEG) or corresponding control media (regular culture medium (RCM), RCM with the same amount of water (RCMW) as the amount added with the SEQ ID NO:7, and RCM with the same amount of acetonitrile (RCMA) as the amount added with cholesteryl-TEG phosphoramidite). Five spheroids per each experimental condition were cultured for 72 hrs. Afterwards, cell cycle progression was evaluated by propidium iodide (PI) staining (Calbiochem, Novabiochem Corporation, San Diego, Calif.) using a FACScalibur flow cytometer (Becton Dickinson, Franklin Lakes, N.J.). Changes in the percentage of cells in the different phases of the cell cycle were analyzed using MODFIT LT software (Verity Software House Inc).

EL-4 cells = experiment: Apoptosis by phosphatidylserine redistribution (annexin V flow cytometry) in EL-4 cells; assay type: cell-based, murine; details: 24 hours; for Percentage of positive cells for phosphatidylserine (cells in apoptosis) in EL-4 cells: untreated cells 7%
Experimental: (§4) Redistribution of plasma membrane phosphatidylserine is a characteristic of cells undergoing apoptosis (Martin et al., J. Exp. Med., 182:1545, 1995). The redistribution of phosphatidylserine in the plasma membrane during apoptosis was measured by flow cytometry using FITC (fluorescein isothiocyanate)-conjugated annexin V (BD Pharmingen, San Diego, Calif.). MEG-01 cells, a human chronic myelogeneous leukemia cell line positive for the Philadelphia chromosome and having a BCR-ABL gene fusion, were incubated at 2.5×10^5 cells/ml for 48 hours with 5.3, 26.5 and 53.0 μM final concentrations of SEQ ID NO:1, SEQ ID NO:2, SEQ ID NO:5, SEQ ID NO:6 and cholesteryl-TEG phosphoramidite molecule. The percentage of cells in apoptosis after exposure to the SEQ ID NOs:1, 2, 5, 6, or cholesteryl-TEG phosphoramidite treatment is reported in Table 2. The percentage of apoptosis in untreated MEG-01 cells was 12%.
EL-4 cells, a murine T lymphoma cell line, were incubated at 2.5×10^5 cells/ml for 24 hours with 0.53, 5.3 and 53.0 μM concentrations of SEQ ID NO:3, SEQ ID NO:7 or cholesteryl-TEG phosphoramidite. The percentage of cells in apoptosis after exposure to SEQ ID NO:3, SEQ ID NO:7 or cholesteryl-TEG phosphoramidite treatment is reported in Table 3. The percentage of apoptosis in untreated EL-4 cells was 7%.

[5] = system: MDA-MB-231 (MDA-231) cells; experiment: Cellular proliferation of MDA-231 cells (Trypan blue exclusion count); assay type: cell-based, human; details: MDA-231, 53 μM
Experimental: (§5) Either 20×10^3 MDA-MB-231 (MDA-231) or Hs578T cells were plated into individual wells of 24-well plates in regular culture medium (RCM) presence or absence (control) of 53 μM (final concentration) of SEQ ID NO:3, SEQ ID NO:7, 53 μM cholesteryl-TEG phosphoramidite, or corresponding control media (regular culture medium (RCM) for SEQ ID NO:3, RCM with the same amount of water as the amount added with the SEQ ID NO:7, and RCM with the same amount of acetonitrile as the amount added with cholesteryl-TEG phosphoramidite). Cells were cultured for 72 hrs, removed with trypsin and counted with an hemocytometer using the Trypan blue exclusion technique. Results of three independent assays (mean and standard deviation (s.d.) of percentage of changes compared to controls) are shown in Table 9.

Hs578T cells [6] = experiment: Cellular proliferation of Hs578T cells (Trypan blue exclusion count); assay type: cell-based, human; details: 53 μM
Experimental: as §5

MEG-01 cells = experiment: Apoptosis by phosphatidylserine redistribution (FITC-annexin V flow cytometry) in MEG-01 cells; assay type: cell-based, human; details: 48 hours; for Percentage of positive cells for phosphatidylserine (cells in apoptosis) in MEG-01 cells: untreated cells 12%
Experimental: as §4

[7] = translocation of phosphatidylserine, up to 53.0 μM
[8] = cultured for 3 days, + stimulation, − inhibition, three independent assays

Compound	Inhibition of proliferation of synovial HIG-82 cells (in words) (HIG-82 cells)	Inhibition of HIG-82 cell proliferation, inhibition (%) (HIG-82 cells)	Formation of 3-dimensional structures / cell morphology on MATRIGEL (Hs578T cells [1])	Formation of 3-dimensional structures / cell morphology on MATRIGEL [2]	Effect on pre-formed 3-dimensional structures on MATRIGEL (MCF-7 cells)	Effect on pre-formed 3-dimensional structures on MATRIGEL [3]	Cell cycle progression in multicellular spheroids (Hs578T cells [4])	Percentage of positive cells for phosphatidylserine (cells in apoptosis) in EL-4 cells (EL-4 cells; 0.53 μM) [%]	Percentage of positive cells for phosphatidylserine (cells in apoptosis) in EL-4 cells (EL-4 cells; 5.3 μM) [%]	Percentage of positive cells for phosphatidylserine (cells in apoptosis) in EL-4 cells (EL-4 cells; 53.0 μM) [%]	Induction of apoptosis in EL-4 cells (in words) (EL-4 cells; [7])	Effect on cellular proliferation (in words) ([5]; 72 hrs)	Percentage of changes in cellular proliferation compared to controls (mean ± s.d.) [5, 8] [%]	Effect on cellular proliferation (in words) (Hs578T cells [6]; 72 hrs)	Percentage of changes in cellular proliferation compared to controls (mean ± s.d.) (Hs578T cells [6]; [8])	Percentage of positive cells for phosphatidylserine (cells in apoptosis) in MEG-01 cells (MEG-01 cells; 5.3 μM) [%]	Percentage of positive cells for phosphatidylserine (cells in apoptosis) in MEG-01 cells (MEG-01 cells; 26.5 μM) [%]	Percentage of positive cells for phosphatidylserine (cells in apoptosis) in MEG-01 cells (MEG-01 cells; 53.0 μM) [%]	Induction of apoptosis in MEG-01 cells (in words) (MEG-01 cells; [7])
5′ OH-GTG-OH 3′ (listed as DNA, chemistry not fully specified) [SEQ ID NO:4]	did not inhibit proliferation	−7	did not change the cellular morphology	did not change the cellular morphology	–	–	–	–	–	–	–	–	–	–	–	–	–	–	–
5′OH-GTG(TEG-cholesteryl) 3′ (3' {TEG-Chol}, sugars by position and backbone not given here) [SEQ ID NO:8, 5′-OH, 3′-TEG cholesteryl synthetic oligonucleotide]	capacity to inhibit the cellular proliferation	64	disrupted the growth pattern	disrupted the growth pattern	–	–	–	–	–	–	–	–	–	–	–	–	–	–	–
COc1ccc(C(OCC(COCCOCCOCCOCCCNC(=O)O[C@H]2CC[C@@]3(C)C(=CC[C@H]4[C@@H]5CC[C@H]([C@H](C)CCCC(C)C)[C@@]5(C)CC[C@@H]43)C2)OP(OCCC#N)N(C(C)C)C(C)C)(c2ccccc2)c2ccc(OC)cc2)cc1 (some centres unmarked) [cholesteryl-TEG phosphoramidite]	–	–	–	–	did not affect the 3-dimensional structures	did not affect the 3-dimensional structures	did not significantly modify cell cycle progression	7	7	7	neither SEQ ID NO:3 nor cholesteryl-TEG phosphoramidite caused apoptosis	did not significantly affect cellular proliferation	−2.3 ± 15.9	did not significantly affect cellular proliferation	+13 ± 9.2%	12	12	12	inactive
